Series [1] relates to LN-229 human glioblastoma cells. As to conditions: in vitro; cited from earlier work.
The nature of series [2]: PP1 tissue distribution after oral administration (HPLC). It is filed as in vivo, C57BL/6 mice. How it is done: Panel A: PP1 accumulation in different tissues following oral administration of PP1 (25 mg/kg). C57BL/6 mice were treated daily for 14 days, and the levels of PP1 in the blood, liver, spleen, kidney, heart, brain and in brain tumors, were evaluated by HPLC, as previously described. Data represent average values with standard deviation (n=3). Panel B: Body weight of C57BL/6 mice treated with PP1. Mice were treated with the PP1 at doses ranging from 25 to 75 mg/kg/day administered by oral gavage. Following 7 and 14 days of daily drug administration both control (DMSO-treated) and experimental (PP1-treated) mice were weighted. Data represent average values with standard deviation (at least three mice per group were included). In Panels A and B, tumor free and tumor bearing mice were included for the body weight measurement. Panels C, D and E: Intracranial growth of GL-261-Luc cells. C57 black mice, 6-8 weeks of age were anesthetized with 4% isoflurane and secured in a stereotaxic head frame (Harvard Apparatus, Holliston Mass.). GL-261-luc cells (1×10^5 cells in 2 μl; PerkinElmer Inc.) were injected into the brain parenchyma (coordinates: 3 mm anterior to Bregma; 1.5 mm lateral to Sagital suture; 3 mm down from surface) through a burr hole in the skull using a 10 μl Hamilton syringe. Panel C: Mice with large intracranial tumors were selected using bioluminescence imaging with Xenogen IVIS 200 system. Tumor size is expressed as radiance (photons/s/cm2/sr) and was quantified with the Living Image 4.1 software according to the manufacturer's recommendations (Xenogen). Panels D and E: Pathological evaluation of intracranial tumors and tissues. Following 14 days of drug administration (control: DMSO administered daily by oral gavage; PP1 50 mg/kg administered daily by oral gavage) the animals were euthanized, and the following organs were collected: liver, kidneys, spleen, heart, intact brain and intracranial tumors. The tissues were formalin-fixed, paraffin-embedded, and the resulting thin section were stained with hematoxylin and eosin (H&E) for a routine pathological evaluation.
Detection of PP compounds by high performance liquid chromatography (HPLC) —All HPLC data were obtained from the Agilent 1100 apparatus equipped with a line degasser, binary pump (high pressure mixer), autosampler, column thermostat and Diode Array Detector (DAD) (Agilent Technologies, Santa Clara, Calif.). The analytical column 3 μm, 4.6×150 mm (Octyl Silane C8; YMC America, Inc.), solvent A—50 mM acetic acid in water, and solvent B—acetonitrile, with isocratic flow were used to detect and quantify PP compounds in culture media, in cells, tissues and body fluids. The flow rate was set to 1 ml/min, column temperature was 20° C., and the sample volume was 5 μl. DAD wavelength was set to 285 nm. Sample preparation. Blood, cell culture media, cellular and tissue lysates, were deproteinized by adding 150 μl of acetonitrile to 150 μl of sample, mixed well and centrifuged (15 000 g, 5 min). The lysates were sonicated on ice and centrifuged (15 000 g, 5 min). Finally, 150 μl of the supernatant was mixed with the equal volume of acetonitrile, filtered through 0.22 μm centrifuge filter (Sigma) and analyzed by High Performance Liquid Chromatography (HPLC).
Animal studies—All described procedures involving experimental animals were performed in accordance to the IACUC protocol #3444 at LSUHSC, New Orleans. C57BL/6NHsd mice, 11-12 weeks of age (Envigo), were anesthetized with 4% isoflurane and secured in a stereotaxic head frame (Harvard Apparatus, Holliston Mass.). GL-261-luc cells (1×105) (PerkinElmer Inc.) were suspended in PBS and 2 μl aliquots were injected into the brain parenchyma (coordinates: 3 mm anterior to Bregma; 1.5 mm lateral to Sagital suture; 3 mm down from surface) through a burr hole in the skull using a 10 μl Hamilton syringe. […]

Results on 1 compound are retold here after patent US20220304957A1, “ANTI-CANCER COMPOSITIONS AND METHODS OF USE” (Board of Supervisors of Louisiana State University and …, priority 2019, published 2022).

Consider `CN(CCO)C(=O)C(C)(C)Oc1ccc(C(=O)c2ccc(Cl)cc2)cc1` [PP1, 2-[4-(4-chlorobenzoyl)phenoxy]-N-(2-hydroxyethyl)-N,2-dimethylpropanamide], for which the “concentration at which highly effective tumor cell death occurs” value in series [1] is 10 µM. Moreover, in series [2] (C57BL/6, mouse, brain tumor tissue, po, 25 mg/kg, orally administered, mice, read-out: HPLC-measured concentration in the brain tumor tissues), the concentration at 14 days is 5 to 6 µM. Besides, in series [2] (oral gavage daily, 14 days), the “accumulation in the liver” value was 10.3 ± 4.3 µM, the “concentration in intracranial tumors” value came out at 5.8 ± 0.7 µM, the “level in intact brains” value stood at 4.9 ± 3.4 µM and the “level in the blood” value is 3.05 ± 0.2 µM. Further, in series [2] (oral gavage daily, 14 days), the “level in the heart” value amounted to 6.1 ± 2.4 µM and the “level in the spleen” value was found to be 7.6 ± 3.2 µM. For the same compound, in series [2] (oral gavage daily, 14 days, in µM), the “accumulation in the kidney” value is listed as 8.8+/−4.7.
